Measurements: the NIST ThermoML archive (doi:10.1021/je050416y)

Assay: xn = mol fraction of the nth substance listed
Conditions: 101 kPa, Liquid; for mass density: Vibrating tube method

CC(C)CCO [3-methylbutan-1-ol] + CCO
Conditions	kinematic viscosity, 308.15 K [m2/s]	kinematic viscosity, 313.15 K [m2/s]	kinematic viscosity, 318.15 K [m2/s]	kinematic viscosity, 323.15 K [m2/s]	mass density, 313.15 K [kg/m3]	mass density, 318.15 K [kg/m3]	mass density, 323.15 K [kg/m3]
x1 = 0.0268	–	–	–	–	773.2	769	764.6
x1 = 0.0549	–	–	–	–	774.2	770	765.7
x1 = 0.0845	–	–	–	–	775.2	771	766.7
x1 = 0.0915	1.17e-06	1.07e-06	9.8e-07	8.72e-07	–	–	–
x1 = 0.1156	–	–	–	–	776.2	772	767.8
x1 = 0.1484	–	–	–	–	777.2	773.1	768.9
x1 = 0.1753	1.22e-06	1.12e-06	1.03e-06	9.13e-07	–	–	–
x1 = 0.183	–	–	–	–	778.2	774.1	769.9
x1 = 0.2524	1.27e-06	1.17e-06	1.07e-06	9.53e-07	–	–	–
x1 = 0.2584	–	–	–	–	780.3	776.3	772.1
x1 = 0.3235	1.33e-06	1.22e-06	1.12e-06	9.96e-07	–	–	–
x1 = 0.3433	–	–	–	–	782.4	778.4	774.3
x1 = 0.3894	1.4e-06	1.28e-06	1.17e-06	1.05e-06	–	–	–
x1 = 0.4395	–	–	–	–	784.6	780.6	776.6
x1 = 0.4505	1.47e-06	1.35e-06	1.23e-06	1.1e-06	–	–	–
x1 = 0.5495	–	–	–	–	786.7	782.8	778.9
x1 = 0.5605	1.65e-06	1.51e-06	1.37e-06	1.23e-06	–	–	–
x1 = 0.6567	1.86e-06	1.69e-06	1.54e-06	1.39e-06	–	–	–
x1 = 0.6765	–	–	–	–	788.9	785.1	781.2
x1 = 0.7416	2.1e-06	1.9e-06	1.72e-06	1.55e-06	–	–	–
x1 = 0.817	2.37e-06	2.13e-06	1.92e-06	1.72e-06	–	–	–
x1 = 0.8247	–	–	–	–	791	787.3	783.4
x1 = 0.8844	2.66e-06	2.38e-06	2.13e-06	1.9e-06	–	–	–
x1 = 0.9451	2.98e-06	2.66e-06	2.36e-06	2.09e-06	–	–	–
x1 = 1	3.33e-06	2.94e-06	2.59e-06	2.29e-06	793.2	789.5	785.7
